# Source: PubChem BioAssay (NCI)
#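 Where inhibition never reached the appropriate level, the endpoint shown equals the highest concentration tested. Otherwise, values were interpolated linearly from a five-concentration, 48-hour dose response in 96-well plates. GI50 is the concentration that inhibits growth by half. TGI marks complete inhibition of growth.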
# Columns and labels:
# Assay in all cases: NCI-60 cell line screen, 48 h
# HT29 colon = system: HT29 colon
# LOX IMVI melanoma = system: LOX IMVI melanoma
# SF-539 CNS = system: SF-539 CNS
# SNB-75 CNS = system: SNB-75 CNS
# COLO 205 colon = system: COLO 205 colon
# OVCAR-8 ovarian = system: OVCAR-8 ovarian
# SNB-19 CNS = system: SNB-19 CNS
# HL-60(TB) leukemia = system: HL-60(TB) leukemia
# MDA-MB-435 = system: MDA-MB-435
# BT-549 breast = system: BT-549 breast
Structure (SMILES),TGI (HT29 colon) [µM],TGI (LOX IMVI melanoma) [µM],TGI (SF-539 CNS) [µM],TGI (SNB-75 CNS) [µM],TGI (COLO 205 colon) [µM],TGI (OVCAR-8 ovarian) [µM],TGI (SNB-19 CNS) [µM],TGI (HL-60(TB) leukemia) [µM],TGI (MDA-MB-435) [µM],GI50 (HT29 colon) [µM],GI50 (LOX IMVI melanoma) [µM],GI50 (SF-539 CNS) [µM],GI50 (COLO 205 colon) [µM],GI50 (OVCAR-8 ovarian) [µM],GI50 (SNB-19 CNS) [µM],GI50 (HL-60(TB) leukemia) [µM],GI50 (BT-549 breast) [µM],TGI (BT-549 breast) [µM],GI50 (MDA-MB-435) [µM],GI50 (SNB-75 CNS) [µM]
CCN(CC)CCCNc1nccc2c(C)c3[nH]c4ccncc4c(=O)c3cc12,12.8,3.26,11.2,12.6,12.5,2.36,28.4,8.58,–,–,–,–,–,–,–,–,–,–,–,–
Nc1nc(N)c(CCCCc2ccccc2)c(/C=C/c2ccc([N+](=O)[O-])cc2)n1,16.2,13.5,5.62,9.87,47.6,12.7,64.7,3.14,–,–,–,–,–,–,–,–,–,–,–,–
CCC1=CCC(P(=O)(c2ccccc2)c2ccccc2)CC1C (configuration not stated),> 100,> 100,> 100,49.7,> 100,> 100,> 100,53.6,–,–,–,–,–,–,–,–,–,–,–,–
C[C@H]1[C@H](C)CC[C@]2(C(=O)O)CCC3(COC(=O)/C=C/c4ccc(O)cc4)C(=CCC4[C@@]5(C)CC[C@H](O)C(C)(C)C5CC[C@]43C)[C@H]12 (some centres not stated),18.6,18.3,16.5,23.8,17.9,26.5,22.5,53.1,–,–,–,–,–,–,–,–,–,–,–,–
CCCCCC1CC=CC(NC(=O)OCc2ccccc2)C1/C=C/CCCC1OCCO1 (configuration not stated),> 100,> 100,> 100,> 100,> 100,> 100,> 100,33.4,–,–,–,–,–,–,–,–,–,–,–,–
COc1cc(C(=O)c2cnc(-c3ccc4cc[nH]c4c3)[nH]2)cc(OC)c1OC,0.108,1.98,0.0623,–,0.105,11.5,13.7,0.0535,0.0245,0.0316,0.105,0.0214,0.0277,0.0484,0.0409,0.0224,0.0631,3.12,–,–
CN(C)c1ccc(/C=N/n2c(CCCCc3n[nH]c(=S)n3/N=C/c3ccc(N(C)C)cc3)n[nH]c2=S)cc1,> 100,> 100,> 100,> 100,> 100,> 100,> 100,> 100,> 100,> 100,> 100,> 100,> 100,> 100,> 100,> 100,–,–,> 100,30.2
NS(=O)(=O)c1ccc(-n2nc(-c3ccccc3)cc2-c2cc(O)ccc2O)cc1,> 100,63.2,–,–,> 100,> 100,> 100,–,> 100,74.8,27.7,–,> 100,> 100,> 100,–,> 100,> 100,92.1,–
CC1(C)C=C(N2CCN(C3=CC(C)(C)NC(C)(C)C3)CC2)CC(C)(C)N1,> 100,> 100,> 100,> 100,–,> 100,> 100,> 100,–,–,–,–,–,–,–,–,–,–,–,–
C=C(C)C1CC=C(C)C(O)([C@@]2(O)C[C@H](C(=C)C)CC=C2C)C1 (some centres not stated),37.7,26.9,42.1,54.2,–,35.5,> 100,47.2,–,–,–,–,–,–,–,–,–,–,–,–
CC(/C=C1\CCC(CN(C)C)C1=O)c1cccc(Br)c1 (configuration not stated),20.7,–,33.3,–,37.4,36.8,61.2,10.8,–,–,–,–,–,–,–,–,–,–,–,–
CCOP(=O)(OCC)C(NC(c1ccccc1)c1ccccc1)c1ccsc1 (configuration not stated),–,–,43.1,–,–,57,–,56.9,39.7,–,–,24,–,23.5,–,23,27.5,52.3,21.2,–
c1ccc(N2CCN(CCCN3CCc4c([nH]c5ccccc45)C3c3cccnc3)CC2)cc1 (configuration not stated),> 100,> 100,> 100,> 100,56.2,> 100,> 100,> 58.3,–,–,–,–,–,–,–,–,–,–,–,–
O=C(CC1(O)C(=O)Nc2c(Cl)cc(Cl)cc21)c1ccc([N+](=O)[O-])cc1 (configuration not stated),> 100,> 100,> 68.7,> 87.6,> 92.7,> 87.9,> 100,> 52.5,–,–,–,–,–,–,–,–,–,–,–,–
O=C(CS(=O)c1nc2ccccc2nc1-c1ccccc1)Nc1ccc(Cl)cc1 (configuration not stated),> 100,33.6,> 100,> 100,58.6,> 100,> 100,–,41.4,48.5,17.5,14,23.4,38.3,38.4,–,1.33,53.1,18.1,> 100
C=C1C(=O)O[C@H]2[C@H]1CC/C(CNC(=O)C(C)c1ccc(CC(C)C)cc1)=C\CC[C@@]1(C)O[C@@H]21 (some centres not stated),3.66,2.81,3.07,2.63,3.83,5.96,5.67,–,3.76,1.79,1.45,1.58,1.93,1.88,2.15,–,1.8,4.45,1.72,1.34
CC(O)(c1ccc(OCCC[N+](C)(C)C)cc1)C(C)(O)c1ccc(OCCC[N+](C)(C)C)cc1 (configuration not stated),> 100,> 100,> 100,> 100,> 100,> 100,> 100,> 100,–,–,–,–,–,–,–,–,–,–,–,–
O=c1oc2c(O)c(O)cc3c(=O)oc4c(O)c(O)cc1c4c23,> 100,> 100,–,90.3,> 100,88.7,57.3,> 100,–,> 100,–,–,> 100,–,–,> 100,–,–,–,–
CSC(=NC(=O)c1ccccc1)SCCSC(=NC(=O)c1ccccc1)SC,> 100,> 100,> 100,> 100,> 100,> 100,> 100,> 100,–,–,–,–,–,–,–,–,–,–,–,–
C/C(CC(=O)Nc1cccc([N+](=O)[O-])c1)=N/NC(N)=S,> 100,> 100,> 100,> 100,> 100,> 100,–,> 100,–,–,–,–,–,–,–,–,–,–,–,–

Structure (SMILES),TGI (HT29 colon) [µM],TGI (LOX IMVI melanoma) [µM],TGI (SF-539 CNS) [µM],TGI (SNB-75 CNS) [µM],TGI (COLO 205 colon) [µM],TGI (OVCAR-8 ovarian) [µM],TGI (SNB-19 CNS) [µM],TGI (HL-60(TB) leukemia) [µM],TGI (MDA-MB-435) [µM],GI50 (HT29 colon) [µM],GI50 (LOX IMVI melanoma) [µM],GI50 (SF-539 CNS) [µM],GI50 (COLO 205 colon) [µM],GI50 (OVCAR-8 ovarian) [µM],GI50 (SNB-19 CNS) [µM],GI50 (HL-60(TB) leukemia) [µM],GI50 (BT-549 breast) [µM],TGI (BT-549 breast) [µM],GI50 (MDA-MB-435) [µM],GI50 (SNB-75 CNS) [µM]
CN(CCc1ccccn1)/[N+]([O-])=N/O (tested in a mixture with another compound),> 100,–,> 100,> 100,> 100,> 100,> 100,> 100,–,–,–,–,–,–,–,–,–,–,–,–
CC1=C(C(=O)Nc2ccccc2C)C(c2ccccc2O)C(C(=O)Nc2ccccc2C)=C(C)N1,64.3,44.6,36.5,65.8,–,40.2,> 100,61.2,–,–,–,–,–,–,–,–,–,–,–,–
COC(=O)/C=C(C)/C=C/c1c(C)c(C(C)=O)c(C)n1C,> 100,> 100,> 100,–,> 100,> 100,> 100,> 100,–,–,–,–,–,–,–,–,–,–,–,–
O=C1C(c2ccccc2)=[N+]([O-])c2cc([N+](=O)[O-])ccc21,47.9,28.6,57.3,> 100,36.9,32.6,> 100,30.1,–,–,–,–,–,–,–,–,–,–,–,–
CC1OC(OC2C(O)C(OCCc3ccc(O)c(O)c3)OC(CO)C2OC(=O)/C=C/c2ccc(O)c(O)c2)C(O)C(O)C1O (configuration not stated),–,36,40.9,–,> 100,> 100,> 100,> 100,> 100,–,18.2,22.9,> 100,> 100,> 100,14.9,–,–,39.7,–
C=C1CCCC2OC(OC)CCC12 (configuration not stated),> 100,–,> 100,> 100,> 100,> 100,> 100,> 100,–,–,–,–,–,–,–,–,–,–,–,–
CCOC(=O)Nc1cc2c(c(N)n1)N=C(c1ccccc1)CN2,–,32.9,–,31,0.255,> 100,> 59.5,–,< 0.0001,< 0.0001,< 0.0001,–,< 0.0001,–,< 0.0001,–,–,–,< 0.0001,–
CC[C@@]1(O)C(=O)OCc2c1cc1n(c2=O)Cc2cc3cccc(N)c3nc2-1,> 100,37.2,17,16.1,> 100,> 100,50.3,> 100,–,> 100,4.19,3.7,13.9,12.1,5.77,3.52,–,–,–,2.72
COc1ccc(C(=O)Nc2ccn(CCOC(=O)c3ccc(OC)cc3)c(=O)n2)cc1,> 100,> 100,> 100,> 100,> 100,> 100,–,> 100,–,–,–,–,–,–,–,–,–,–,–,–
Cn1c2ccccc2c2c(=O)n(CCCC(=O)NCCc3cnc[nH]3)c3c(-c4ccccc4)nnn3c21,17.9,22.9,17.2,18.6,19.6,20.8,24.1,28.4,20,8.55,11.2,9.26,8.51,10.1,11.8,11.8,–,–,10.2,10.4
CC(=O)OC(C)(C)C[N+](=O)[O-],> 100,> 100,> 100,> 100,> 100,> 100,> 100,> 100,–,–,–,–,–,–,–,–,–,–,–,–
Cc1cc(C(=O)CC(Cl)=C(Cl)Cl)c(Cl)cc1Cl,> 100,33.8,29.9,> 100,86.1,46.3,> 100,–,43.1,34.6,17.6,13.1,27.7,21.7,35.4,–,20.2,44.4,17.1,34.8
CCN(CC)CCNc1ccc(N=Nc2cnc3ccccc3c2)c2ccccc12,2.67,2.77,3.07,2.89,2.98,4.19,3.97,2.92,–,1.38,1.43,1.67,1.61,2.09,2.06,1.34,–,–,–,1.36
Cc1cc2oc(=O)cc(OC/C=C3/CCC(=O)O3)c2cc1C,12.7,4.59,5.7,9.61,10.4,19.5,19,–,18.5,2.9,1.82,1.34,2.19,4.62,3.04,–,1.93,6.73,4.64,1.97
O=C(O)C1C2C=CC(O2)C1C(=O)NCc1ccncc1 (configuration not stated),> 100,> 100,> 100,> 100,> 100,> 100,> 100,> 100,> 100,–,–,–,–,–,–,–,–,–,–,–
CC(=O)CCn1[nH]c(=O)c(Cl)c(Cl)c1=O,> 100,> 100,> 100,> 100,–,> 100,31.1,> 100,–,–,–,–,–,–,–,–,–,–,–,–
COc1ccc2[nH]cc(C3(c4c[nH]c5ccc(OC)cc45)C(=O)Nc4ccc(Cl)cc43)c2c1,–,5.33,> 100,14,3.53,18.7,> 100,–,–,–,2.16,4.39,1.88,3.36,5.14,–,5.08,56.8,–,1.9
Cc1cc(=O)n2c(cc3cccccc32)n1,> 100,> 100,> 100,> 100,> 100,> 100,> 100,> 100,–,–,–,–,–,–,–,–,–,–,–,–
CCCCCCCCC1C(C)c2c([nH]c3ccccc23)C2C(=O)N(c3ccccc3)C(=O)C21 (configuration not stated),19.1,–,32.7,39.9,–,28.4,–,13.9,–,–,–,–,–,–,–,–,–,–,–,–
O=C(CO)CC(=O)C(=O)Nc1cccc(C(F)(F)F)c1,> 100,> 100,> 100,> 100,> 100,> 100,> 100,> 100,–,–,–,–,–,–,–,–,–,–,–,–
